Calls of active or inactive are those of the source.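 Rule for the calls: active = compound-induced drop in polymyxin IC50 in wild-type bacteria exceeding double the drop in a mutant lacking PhoP; inactive = the rest.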
Key:
[1] = polymyxin sensitization in S. Typhimurium, mechanism study for PhoP regulon inhibitor project, Salmonella typhimurium, WT and phoP- strains, set 2 (AID 2816); conditions: S. Typhimurium polymyxin IC50 shift, OD600, 24 h, at 150 µM
[2] = tested on: S. Typhimurium polymyxin IC50 shift, OD600, 24 h; test: as above
[3] = measured here: phoP- strain counter-screen shift
[4] = measured here: wild-type strain IC50 shift, stronger effect = higher value
[5] = WT polymyxin IC50 at 150 uM, stronger effect = lower value

| Structure (SMILES) | polymyxin IC50 shift difference WT - phoP- ([1]; stronger effect = higher value) | polymyxin IC50 shift [1, 3] | polymyxin IC50 shift [1, 4] | polymyxin IC50 [2, 5] [nM] | polymyxin IC50 ([2]; phoP- polymyxin IC50 at 150 uM) [nM] | IC50 [2] [nM] |
| --- | --- | --- | --- | --- | --- | --- |
| O=C1C2=C(Nc3ccccc3SC2c2ccsc2)c2ccccc21 (stereo not drawn) | 2.14 (inactive) | -0.359 | 1.78 | 2670 | 3000 |  |
| CCn1cc(C(=O)O)c(=O)c2cc(F)c(N3CCN(C(=S)Nc4ccccc4C(F)(F)F)CC3)cc21 | -3.38 (inactive) | 3.42 | 0.032 | 2590 | 2950 |  |
| COc1ccc(CNC(=S)Nc2ccncc2)cc1 |  | 1.46 | 10.1 |  | 4420 | 75000 |
| O=C(Nc1ccc(Br)cc1)N1CCCN(Cc2ccccc2F)C1 | -2.51 (inactive) | 1.55 | -0.956 | 4820 | 2620 |  |
| O=C1C2=C(Nc3ccccc3SC2c2ccc(I)cc2)c2ccccc21 (stereo not drawn) | 1.63 (inactive) | 1.03 | 2.66 | 2470 | 2890 |  |
| COc1cccc(C2Sc3ccccc3NC3=C2C(=O)c2ccccc23)c1 (stereo not drawn) | -1.75 (inactive) | 5.35 | 3.6 | 2110 |  |  |

— PubChem BioAssay AID2816 (Southern Research Specialized Biocontainment Screening …, 2010)
